Values joined by “and” are separate entries in the source; they are usually repeats but may differ in a detail not shown here. Equal values may be shown once.
Key:
mDOR [1] = target: T1, mDOR (Mus musculus, UniProt P32300); experiment: [125I]BNtxA radioligand competition binding, mouse DOR; conditions: mean ± SEM, n = 3; [125I]BNtxA; read-out: Ki ± SEM mDOR
T1 construct: expressed in transfected cells

mKOR = target: T2, mKOR (Mus musculus, UniProt P33534); experiment: [125I]BNtxA radioligand competition binding, mouse KOR; conditions: mean ± SEM, n = 3; [125I]BNtxA; read-out: Ki ± SEM mKOR
T2 construct: expressed in transfected cells; membranes

rKOR = target: T3, rKOR (Rattus norvegicus, UniProt P34975); experiment: CAMYEL BRET cAMP agonist assay at rKOR; type: cell-based; conditions: individual replicates, Supplementary Figure 8B source data
T3 construct: expressed in transfected cells

hDOR = hDOR (Homo sapiens, UniProt P41143); experiment: CAMYEL BRET cAMP agonist assay at hDOR; type: cell-based; conditions: for Agonist activity of 7OH analogs at hDOR: single replicate values, Supplementary Figure 7A
mMOR = target: T4, mMOR (Mus musculus, UniProt P42866); experiment: CAMYEL BRET cAMP agonist assay at mMOR; type: cell-based; conditions: mMOR; for cAMP %: single replicates, source data Fig 6b, listed as C11-Cl-7OH (23)
T4 construct: signal peptide (heterologous, not specified) (N); expressed in transfected cells; pcDNA3.1(+) construct made in house

mDOR [2] = target: T1, mDOR; experiment: CAMYEL BRET cAMP agonist assay at mDOR; type: cell-based; conditions: single replicate values, Supplementary Figure 7B

CC[C@@H]1CN2CC[C@@]3(O)C(=Nc4cc(Cl)cc(OC)c43)[C@@H]2C[C@@H]1/C(=C\OC)C(=O)OC [11-Cl-7OH (23), 11-Cl-7OH]
Ki (mDOR [1]): 47.2 ± 2.4 nM | Ki (mKOR): 30.7 ± 11.4 nM | Agonist activity of 7OH analogs at rKOR (rKOR; Log [drug](M) -5): 7.778 and 10.9917 and 16.9019 and -6.188 and -1.8256 and 8.442 and 6.4374 and 16.0399 and 7.566 | Agonist activity of 7OH analogs at rKOR (rKOR; Log [drug](M) -6): 8.066 and 4.412 and -3.244 and 6.747 and -4.426 and -2.321 and 10.6533 and 7.813 and 3.403 | Agonist activity of 7OH analogs at rKOR (rKOR; Log [drug](M) -7): 11.5045 and -0.8261 and -10.6783 and 7.768 and -4.174 and 5.42 and 2.7074 and 2.952 and 8.478 | Agonist activity of 7OH analogs at rKOR (rKOR; Log [drug](M) -8): 0.508 and -0.7332 and 4.656 and 8.713 and 2.1745 and 4.589 and 10.047 and 0.1108 and 9.912 | Agonist activity of 7OH analogs at rKOR (rKOR; Log [drug](M) -9): 6.738 and 3.9698 and 11.9053 and 20.8557 and 20.3344 and 22.4492 and 3.132 and -0.673 and 0.03935 | Agonist activity of 7OH analogs at rKOR (rKOR; Log [drug](M) -10): 7.8399 and 7.154 and 27.1145 and 5.225 and 8.778 and 7.65 and 0.6993 and -2.781 and 2.082 | Agonist activity of 7OH analogs at rKOR (rKOR; Log [drug](M) -11): 20.1355 and 7.2112 and 5.419 and 15.9158 and 14.9773 and 3.289 and 5.031 and 2.5469 and 3.562 | Agonist activity of 7OH analogs at rKOR (rKOR; Log [drug](M) -13): 2.6438 and 19.3085 and 15.1998 and 15.6888 and 12.292 and 1.7 and 4.489 and 13.3107 and 4.029 | Agonist activity of 7OH analogs at hDOR (hDOR; Log[drug] (M) -5): 17.1397 and 15.6735 and 17.1747 and 8.18 and -3.544 and 1.305 and 21.6642 and 15.0671 and 20.6929 | Agonist activity of 7OH analogs at hDOR (hDOR; Log[drug] (M) -6): 30.6083 and 25.9231 and 32.3513 and 1.677 and 12.7082 and 9.625 and 17.2797 and 6.922 and 2.636 | Agonist activity of 7OH analogs at hDOR (hDOR; Log[drug] (M) -7): 15.9329 and 22.4846 and 15.3548 and 1.086 and 2.267 and 6.255 and -1.22 and -1.151 and 2.37 | Agonist activity of 7OH analogs at hDOR (hDOR; Log[drug] (M) -8): 13.6904 and 16.1168 and 10.9974 and 2.935 and -7.546 and 4.612 and 5.7671 and 0.4715 and 17.0267 | Agonist activity of 7OH analogs at hDOR (hDOR; Log[drug] (M) -9): 23.852 and 14.4843 and 22.6626 and 18.4578 and 15.1232 and 4.553 and 18.1791 and 11.0147 and 18.7534 | Agonist activity of 7OH analogs at hDOR (hDOR; Log[drug] (M) -10): 5.724 and 19.2021 and 4.266 and 3.553 and -1.827 and 11.1585 and 2.694 and 3.131 and 7.14 | Agonist activity of 7OH analogs at hDOR (hDOR; Log[drug] (M) -11): 7.339 and 12.4107 and 20.099 and 7.6883 and 4.754 and 8.248 and 8.188 and 1.326 and 2.427 | Agonist activity of 7OH analogs at hDOR (hDOR; Log[drug] (M) -13): -6.485 and 2.218 and 4.267 and 9.369 and -0.6447 and 11.9855 and 0.02092 and 7.539 and 4.083 | Emax (hDOR; hDOR cAMP BRET, positive control DPDPE): very low efficacy | cAMP % (mMOR; Log[drug] (M) -5): 6.435% and 6.384% and 16.5545% and 12.4027% and 11.5958% and 9.171% and 11.6377% and 17.8045% and 15.1324% | cAMP % (mMOR; Log[drug] (M) -6): 18.6614% and 4.689% and 11.9914% and 8.341% and 7.121% and 7.194% and 11.7839% and 2.54% and 3.967% | cAMP % (mMOR; Log[drug] (M) -7): 11.7629% and -2.4507% and 10.3244% and 12.5872% and 11.439% and 4.6796% and 1.65% and 1.082% and 0.9258% | cAMP % (mMOR; Log[drug] (M) -8): -5.129% and 6.21% and -1.081% and 7.275% and 2.298% and 9.574% and 9.25% and -4.751% and 0.6222% | cAMP % (mMOR; Log[drug] (M) -9): 2.051% and -8.733% and 10.4525% and -1.843% and 3.825% and 12.7464% and 9.611% and 1.736% and 14.7967% | cAMP % (mMOR; Log[drug] (M) -10): -1.957% and 12.894% and -4.791% and 0.07219% and 0.3304% and -0.4025% and -1.324% and -2.101% and 5.511% | cAMP % (mMOR; Log[drug] (M) -11): 22.2971% and -9.038% and -0.05376% and 20.8701% and 7.205% and 16.4135% and 3.836% and -1.905% and 3.566% | cAMP % (mMOR; Log[drug] (M) -13, cAMP inhibition as % of DAMGO): -0.5682% and 13.1006% and 15.0829% and 7.325% and 4.046% and 5.291% and 0.9156% and 1.033% and -1.949% | Emax (mMOR; maximal inhibitory effect on cAMP levels relative to DAMGO): 13% | EC50 (mMOR; n = 3, read-out: EC50): 841 nM | Agonist activity of 7OH analogs at mDOR (mDOR [2]; Log[drug] (M) -5): 26.1167 and 29.2367 and 36.3699 and 32.2405 and 24.7678 and 31.8502 and 20.8066 and 14.4196 | Agonist activity of 7OH analogs at mDOR (mDOR [2]; Log[drug] (M) -6): 24.5815 and 25.9676 and 37.4358 and 15.5242 and 17.7522 and 18.5933 and 15.1392 and 2.291 and 7.306 | Agonist activity of 7OH analogs at mDOR (mDOR [2]; Log[drug] (M) -7): 31.8669 and 29.4684 and 27.3279 and 35.1303 and 15.7738 and 14.2288 and -2.321 and 1.192 and 1.129 | Agonist activity of 7OH analogs at mDOR (mDOR [2]; Log[drug] (M) -8): 24.8631 and 32.1589 and 37.1926 and 12.9562 and 15.2093 and 7.166 and 10.5442 and -9.446 and 11.0136
